Here are results for 29 molecules from ChEMBL document CHEMBL3425470, “Discovery of imidazopyridine derivatives as highly potent respiratory syncytial virus fusion inhibitors” (ACS Med Chem Lett, 2015).

The nature of series [1]: Antiviral activity against Respiratory syncytial virus A infected in human Hep2 cells assessed as reduction of virus-induced cytopathic effect after 6 days by CCK-8 assay. Format: functional, cell-based, Respiratory syncytial virus type A. The note with it: HEp-2, 144 h.
The nature of series [2]: Cytotoxicity against human Hep2 cells assessed as cell viability after 6 days by CCK-8 assay. On the technique in general: Formazan colour is commonly taken as a measure of viable cells.
Series [3] is described as follows: Solubility of the compound in phosphate buffer at pH 6.5 after overnight incubation by LYSA method.
A short description of series [4]: Clearance in human liver microsomes at 1 uM. (Liver microsomes are vesicles of endoplasmic reticulum, rich in cytochrome P450 enzymes.)
Series [5] can be described thus: Clearance in mouse liver microsomes at 1 uM.
A further series can be described thus: in vitro. The note with it: PAMPA. (In PAMPA a lipid-coated filter parts donor from acceptor wells.)
The target of a further series is Cytochrome P450 3A4 (Homo sapiens, UniProt P08684). Nature of the series: Inhibition of CYP3A4 in human liver microsomes by LC-MS/MS analysis.
Sequence of Cytochrome P450 3A4 (P08684 whole entry): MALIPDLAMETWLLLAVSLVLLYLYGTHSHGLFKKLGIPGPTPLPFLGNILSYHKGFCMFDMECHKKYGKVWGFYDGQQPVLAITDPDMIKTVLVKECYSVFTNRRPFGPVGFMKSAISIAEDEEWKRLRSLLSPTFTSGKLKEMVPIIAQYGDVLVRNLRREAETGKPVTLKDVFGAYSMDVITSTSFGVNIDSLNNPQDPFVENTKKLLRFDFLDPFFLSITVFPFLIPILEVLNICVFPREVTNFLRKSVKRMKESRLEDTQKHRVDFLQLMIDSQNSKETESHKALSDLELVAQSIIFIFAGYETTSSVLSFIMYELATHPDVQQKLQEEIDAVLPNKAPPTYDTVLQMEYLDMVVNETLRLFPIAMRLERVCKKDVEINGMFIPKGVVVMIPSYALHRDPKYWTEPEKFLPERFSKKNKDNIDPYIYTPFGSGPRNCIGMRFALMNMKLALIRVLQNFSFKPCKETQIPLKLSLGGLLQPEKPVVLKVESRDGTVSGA
A further series has as its target Cytochrome P450 2C9 (Homo sapiens, UniProt P11712). Nature of the series: Inhibition of CYP2C9 in human liver microsomes by LC-MS/MS analysis.
Another series has as its target Cytochrome P450 2D6 (Homo sapiens, UniProt P10635). The experiment in a line: Inhibition of CYP2D6 in human liver microsomes by LC-MS/MS analysis.

Converted amounts (≈) assume the structure as drawn. A value given as a limit tells only on which side of the number the result lay.

Sequence of Cytochrome P450 2D6 (P10635 whole entry): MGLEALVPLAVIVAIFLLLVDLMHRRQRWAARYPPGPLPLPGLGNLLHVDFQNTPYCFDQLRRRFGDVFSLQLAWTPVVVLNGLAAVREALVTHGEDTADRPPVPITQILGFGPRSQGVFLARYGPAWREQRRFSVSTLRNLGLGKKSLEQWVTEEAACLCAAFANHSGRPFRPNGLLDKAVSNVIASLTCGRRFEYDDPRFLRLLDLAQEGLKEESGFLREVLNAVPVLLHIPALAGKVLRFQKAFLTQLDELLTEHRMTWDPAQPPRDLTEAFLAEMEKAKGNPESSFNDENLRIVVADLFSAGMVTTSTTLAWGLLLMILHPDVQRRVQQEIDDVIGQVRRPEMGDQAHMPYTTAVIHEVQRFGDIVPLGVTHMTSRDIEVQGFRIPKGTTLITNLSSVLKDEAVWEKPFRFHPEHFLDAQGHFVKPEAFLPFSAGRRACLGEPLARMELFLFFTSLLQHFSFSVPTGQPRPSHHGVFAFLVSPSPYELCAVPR
Sequence of Cytochrome P450 2C9 (P11712 whole entry): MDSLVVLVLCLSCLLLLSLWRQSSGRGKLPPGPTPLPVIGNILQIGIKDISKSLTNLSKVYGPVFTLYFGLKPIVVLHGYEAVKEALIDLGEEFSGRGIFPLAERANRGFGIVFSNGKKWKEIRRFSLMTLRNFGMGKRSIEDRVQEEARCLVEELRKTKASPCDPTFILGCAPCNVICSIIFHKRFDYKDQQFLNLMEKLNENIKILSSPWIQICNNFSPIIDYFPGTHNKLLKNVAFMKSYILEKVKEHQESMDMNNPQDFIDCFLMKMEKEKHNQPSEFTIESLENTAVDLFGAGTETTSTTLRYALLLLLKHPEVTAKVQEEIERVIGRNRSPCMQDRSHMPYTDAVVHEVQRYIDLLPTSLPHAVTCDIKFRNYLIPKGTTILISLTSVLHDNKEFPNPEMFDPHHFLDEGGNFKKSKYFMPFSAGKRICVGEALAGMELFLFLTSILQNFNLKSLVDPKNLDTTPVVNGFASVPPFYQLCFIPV
Description for in vitro: Permeability of the compound at 150 uM by PAMPA

In the case of `O=c1n(Cc2nc3ccccc3n2CCCCO)c2cnccc2n1C1CC1`, the EC50 in series [1] was 28 nM.
As to `Cc1ccc2nc(Cn3c(=O)n(C4CC4)c4ccncc43)c(CCCCO)n2c1`, the EC50 in series [1] turned out to be 217 nM. Also, the CC50 at 144 h in series [2] (Hep2 cells) is above 100 µM.
Consider `O=c1n(Cc2nc3ccc(F)cn3c2CCCCO)c2cnccc2n1C1CC1`, for which, in series [1], the EC50 came to 96 nM. Moreover, in series [2] (Hep2 cells), the CC50 at 144 h is above 100 µM.
The matching figures for `O=c1n(Cc2nc3ccc(Cl)cn3c2CCCCO)c2cnccc2n1C1CC1`: 422 nM and above 100 µM.
With `O=c1n(Cc2nc3ccc(C(F)(F)F)cn3c2CCCCO)c2cnccc2n1C1CC1`, in series [1], the EC50 was found to be 2890 nM. In [2] (Hep2 cells), the CC50 at 144 h was above 100 µM.
Taken in the same sequence, the figures for `Cc1ccn2c(CCCCO)c(Cn3c(=O)n(C4CC4)c4ccncc43)nc2c1` were 6 nM and above 100 µM.
Turning to `CCc1ccn2c(CCCCO)c(Cn3c(=O)n(C4CC4)c4ccncc43)nc2c1`, the EC50 in series [1] turned out to be 7 nM. Moreover, the CC50 at 144 h in series [2] (Hep2 cells) is above 100 µM.
For the molecule `O=c1n(Cc2nc3cc(F)ccn3c2CCCCO)c2cnccc2n1C1CC1`, the EC50 in series [1] was 23 nM. Also, in series [2] (Hep2 cells), the CC50 at 144 h was above 100 µM.
Turning to `O=c1n(Cc2nc3ccccn3c2CCCCO)c2cnccc2n1C1CC1`, in [1], the EC50 came out at 17 nM. In [2] (Hep2 cells), the CC50 at 144 h was above 100 µM.
In the case of `O=c1n(Cc2nc3cc(C(F)(F)F)ccn3c2CCCCO)c2cnccc2n1C1CC1`, the EC50 in series [1] was 217 nM. Further, the CC50 at 144 h in series [2] (Hep2 cells) was above 100 µM.
Take `O=c1n(Cc2nc3cc(Cl)ccn3c2CCCCO)c2cnccc2n1C1CC1`: in series [1], the EC50 came out at 7 nM. For the same molecule, the CC50 at 144 h in [2] (Hep2 cells) is above 100 µM. This molecule came in with a solubility in [3] of 20 µg/mL (≈ 48.6 µM). The values for the CLhep predicted at 1 µM in [4] and in series [5] were 11.5 mL/min/kg and 80 mL/min/kg, respectively. Moreover, the Papp at 150 µM in “in vitro” was 3.1 ×10⁻⁶ cm/s.
`O=c1n(Cc2cn3ccc(Cl)cc3n2)c2cnccc2n1C1CC1`: the EC50 in series [1] was 3060 nM. The CC50 at 144 h in series [2] (Hep2 cells) amounted to 22.3 µM.
The matching figures for `N#Cc1c(Cn2c(=O)n(C3CC3)c3ccncc32)nc2cc(Cl)ccn12`: 86 nM and 22.5 µM.
In the case of `O=c1n(Cc2nc3cc(Cl)ccn3c2CO)c2cnccc2n1C1CC1`, the EC50 in series [1] was determined as 1930 nM. Further, the CC50 at 144 h in series [2] (Hep2 cells) is above 100 µM.
As for `O=C(O)c1c(Cn2c(=O)n(C3CC3)c3ccncc32)nc2cc(Cl)ccn12`, the EC50 in series [1] is 25500 nM. Also, the CC50 at 144 h in series [2] (Hep2 cells) was above 100 µM.
Regarding `O=C(NCCO)c1c(Cn2c(=O)n(C3CC3)c3ccncc32)nc2cc(Cl)ccn12`, in series [1], the concentration for a half-maximal effect (EC50) turned out to be 2230 nM. Also, the CC50 at 144 h in [2] (Hep2 cells) is above 100 µM.
`CS(=O)(=O)CCNC(=O)c1c(Cn2c(=O)n(C3CC3)c3ccncc32)nc2cc(Cl)ccn12`: in series [1], the EC50 amounted to 82 nM. Moreover, the CC50 at 144 h in series [2] (Hep2 cells) is above 100 µM.
Consider `O=C(O)/C=C/c1c(Cn2c(=O)n(C3CC3)c3ccncc32)nc2cc(Cl)ccn12`, for which the EC50 in [1] was 207 nM. Also, the CC50 at 144 h in [2] (Hep2 cells) was above 100 µM.
Regarding `O=C(O)CCc1c(Cn2c(=O)n(C3CC3)c3ccncc32)nc2cc(Cl)ccn12`, in series [1], the EC50 came out at 53 nM. In addition, in series [2] (hep-2), the CC50 at 144 h was above 100 µM. The molecule also yielded a solubility in series [3] of 541 µg/mL (≈ 1310 µM). Besides, the CLhep predicted at 1 µM in series [5] was 9.1 mL/min/kg. Also, the IC50 against Cytochrome P450 3A4, at Cytochrome P450 2C9 and against Cytochrome P450 2D6 was above 50 µM each time. Also, in “in vitro”, the Papp at 150 µM stood at 0.3 ×10⁻⁶ cm/s.
Consider `NC(=O)CCc1c(Cn2c(=O)n(C3CC3)c3ccncc32)nc2cc(Cl)ccn12`, for which the EC50 in series [1] is 5 nM. In [2] (Hep2 cells), the cytotoxic concentration (CC50) at 144 h is above 100 µM. For the same molecule, the concentration in solution in [3] (solubility) was 87 µg/mL (≈ 212 µM). For the same molecule, the CLhep predicted at 1 µM in series [4] is 13.5 mL/min/kg; in series [5] it was 59 mL/min/kg. This molecule registered a Papp at 150 µM in the series “in vitro” of 2.5 ×10⁻⁶ cm/s.
For the molecule `O=C(CCc1c(Cn2c(=O)n(C3CC3)c3ccncc32)nc2cc(Cl)ccn12)NCCO`, in series [1], the EC50 was found to be 10 nM. For the same molecule, the CC50 at 144 h in series [2] (Hep2 cells) was above 100 µM. In [3], this molecule yielded a solubility of 107 µg/mL (≈ 235 µM). The results for the CLhep predicted at 1 µM in [4] and in series [5] were 2.9 mL/min/kg and 47 mL/min/kg, respectively. This molecule also displayed a Papp at 150 µM in “in vitro” of 0.96 ×10⁻⁶ cm/s.
Turning to `CS(=O)(=O)NC(=O)CCc1c(Cn2c(=O)n(C3CC3)c3ccncc32)nc2cc(Cl)ccn12`, the EC50 in [1] was 46 nM. Besides, the CC50 at 144 h in series [2] (Hep2 cells) was above 100 µM.
With `CS(=O)(=O)CCc1c(Cn2c(=O)n(C3CC3)c3ccncc32)nc2cc(Cl)ccn12`, the EC50 in series [1] was found to be 6 nM. Also, the CC50 at 144 h in [2] (Hep2 cells) was above 100 µM. The same molecule returned a solubility in [3] of 59 µg/mL (≈ 132 µM). Moreover, the CLhep predicted at 1 µM in series [4] is 2.5 mL/min/kg; in [5], 35 mL/min/kg. For the same molecule, the IC50 at Cytochrome P450 3A4, at Cytochrome P450 2C9 and on Cytochrome P450 2D6 was above 50 µM each time. Moreover, the Papp at 150 µM in the series “in vitro” was 3.6 ×10⁻⁶ cm/s.
As to `CCS(=O)(=O)CCc1c(Cn2c(=O)n(C3CC3)c3ccncc32)nc2cc(Cl)ccn12`, the EC50 in [1] is 3 nM. In addition, in series [2] (hep-2), the CC50 at 144 h was above 100 µM. The molecule further came in with a solubility in [3] of 46 µg/mL (≈ 100 µM). Besides, the values for the CLhep predicted at 1 µM in [4] and in series [5] were 4.6 mL/min/kg and 62 mL/min/kg, respectively. Moreover, the IC50 against Cytochrome P450 3A4, at Cytochrome P450 2C9 and against Cytochrome P450 2D6 was above 50 µM each time. Further, in the series “in vitro”, the Papp at 150 µM was determined as 2.6 ×10⁻⁶ cm/s.
As for `CCCCNc1c(Cn2c(=O)n(C3CC3)c3ccncc32)nc2cc(Cl)ccn12`, the EC50 in [1] worked out at 41 nM. Also, the CC50 at 144 h in [2] (Hep2 cells) is above 100 µM.
As to `O=c1n(Cc2nc3cc(Cl)ccn3c2NC2CCCCC2)c2cnccc2n1C1CC1`, the concentration for a half-maximal effect (EC50) in series [1] is 72 nM. Also, in [2] (Hep2 cells), the CC50 at 144 h was above 100 µM.
In the case of `O=c1n(Cc2nc3cc(Cl)ccn3c2NCCN2CCOCC2)c2cnccc2n1C1CC1`, the EC50 in series [1] turned out to be 83 nM. Besides, the CC50 at 144 h in series [2] (Hep2 cells) is above 100 µM.
On to `O=c1n(Cc2nc3cc(Cl)ccn3c2CNCCO)c2cnccc2n1C1CC1`, for which the EC50 in series [1] is 683 nM. Besides, the CC50 at 144 h in series [2] (Hep2 cells) is above 100 µM.
Turning to `CS(=O)(=O)c1ccc(-c2c(Cn3c(=O)n(C4CC4)c4ccncc43)nc3cc(Cl)ccn23)cc1`, the EC50 in series [1] is 89 nM. The CC50 at 144 h in series [2] (Hep2 cells) is above 100 µM.

As usually defined, the EC50 is the concentration needed to bring the measured effect to its halfway point. In general, CC50 refers to the concentration at which the toxic effect on the cells reaches its halfway point. Broadly, the solubility is the concentration that dissolves in the medium under given conditions. Higher therefore signals a readily soluble substance. Broadly, the Papp is the rate of passage across a membrane or cell layer, normalised by area and donor concentration. Lower therefore signals poor permeation. The term IC50 denotes the concentration that inhibits the measured activity by half. Lower therefore signals higher potency.
